Test results reported in a melting point compilation (Tetko et al.; mined from patent text by program, amines drawn as free bases though some values may be those of a salt).

Structure (SMILES) | melting point [°C]
CCOC(=O)c1cn(CC)c2nc(Cl)c(F)cc2c1=O | 150 to 160
Cc1cc(C#N)cc(C(=O)c2c(C(C)C)c(=O)[nH]c(=O)n2Cc2cc(F)cc(NC(=O)C(F)(F)F)c2)c1 | 263 to 264
C#CCCCCCCCCCCCCCCCCCCCCO | 64 to 70
CCC(OC(C)=O)C(=O)Nc1ccc(I)cc1Cl (stereo not drawn) | 156 to 158
COc1ccc(Cl)cc1C1(O)C(=O)Nc2cc(C(F)(F)F)ccc21 (stereo not drawn) | 207 to 210
Cc1c(Sc2cc(Cl)c(Cl)cc2Cl)cc(C(C)(C)C)c(O)c1C(=O)Nc1ccc([N+](=O)[O-])cc1C(F)(F)F | 179 to 180
O=C1C=C(c2ccccc2)NCCN1 | 204 to 206
c1c(C2CC2)n[nH]c1C1CC1 | 161 to 164
NC(=O)c1nc(-c2ccccc2)[nH]c1N | 300
CCCCCCCCCCCCCCCCCCOc1cccc(C(=O)O)c1OCCCOc1ccc(O)cc1 | 81 to 83
COCOc1cc(CCCOc2nn(Cc3ccccc3)cc2CC(=O)O)n(Cc2ccc(Cl)cc2Cl)n1 | 89.5 to 91.5
O=Cc1ccc(OCCBr)c2ccccc12 | 83 to 84
CCC(=O)c1c(O)cccc1O | 135 to 136
COc1ccc(C=CS(=O)(=O)Cl)cc1 | 65 to 67
Cc1cc(C)cc(NC(=O)c2ccc([N+](=O)[O-])cc2)c1 | 206 to 210
O=C(c1ccc(-n2ccc(C(F)(F)F)n2)cc1)N1Cc2cccn2Cc2ccccc21 | 166 to 167
O=C1CCC(c2ccc(N=Cc3ccc(C(F)(F)F)cc3)cc2)=NN1 | 245 to 247
Cc1ccc(C)n1-c1ccc(CC#N)cc1 | 112 to 113
CC(=O)CCC(=O)c1ccccc1 | 31
CC#Cc1ccc(NC(=O)C#Cc2ccc(CCN3CCCC3)cc2)cc1 | 198 to 199
Cc1oncc1-c1cncc(OC2SCC(O)C(O)C2O)c1 (stereo not drawn) | 209
CCOc1nc(O)ns1 | 98

Structure (SMILES) | melting point [°C]
CCCCCCC1=CC(O)(C(Br)Br)N(Cc2ccccc2)C1=O (stereo not drawn) | 105 to 108
O=[N+]([O-])c1cc(Cl)c(Cl)cc1NCCCO | 97
Nc1ccc(CP2(=O)OCCO2)cc1 | 183 to 184
CCN(CC)C(=O)CCc1ccc(O)c(N)c1 | 92 to 93
O=C(OCC1CCC1)c1ncn2c1[C@@H]1CCCN1C(=O)c1c(Cl)cccc1-2 | 204 to 205
Cc1cc2c(cc1C(C)SCC(N)=O)OCO2 (stereo not drawn) | 121 to 122
COc1nc(O)cc(CCl)n1 | 154 to 155
Oc1ccc2c(c1)SCCc1c-2n(CCCCCN2CCCC2)c2ccc(O)cc12 | 202 to 204
O=C1Nc2ccccc2SC1CCBr (stereo not drawn) | 151 to 152
CCCCOc1ccc(CCCCCCCCC(=O)NO)cc1 | 99 to 101
Cn1c(C(F)(F)F)cc(=O)n(-c2c(F)cc(Cl)c3c2OC(C)(C)CC3)c1=O | 132 to 135
Cc1ccc(Cn2ccc(CN3CCC(c4ccccc4)(c4ccccc4)CC3)n2)cc1C | 139 to 140
CNC(=O)ON=C1N=C(C)C(C)(C)S1 | 123 to 125
Fc1cc(-n2cc(CN=C=S)nn2)cc(F)c1N1CCOCC1 | 135
O=C1Nc2ccccc2S(=O)(=O)N1C1CCN(Cc2ccccc2)CC1 | 169 to 171
COc1ccc2c(c1)CC[C@@H](O)[C@@H]2N1CCCC1 (relative stereo) | 79 to 80
CN(C)S(=O)(=O)c1ccc(F)cc1 | 40 to 43
NC(=O)C1CCN(c2cccc3c2OCCO3)CC1 | 194
CC(=O)N(C)C(=O)ON=C1SCC(=O)NC1(C)C | 218 to 220
CCOC(=O)Cc1ccc(NC(=O)Nc2ccccc2C(F)(F)F)cc1 | 137 to 139
O=C(CCCC(=O)Oc1cc(O)cc(O)c1)Oc1cc(O)cc(O)c1 | 205 to 208
CC(=O)OCC1(C)OCC2(CO1)COC(C)(COC(C)=O)OC2 (stereo not drawn) | 66 to 67

Structure (SMILES) | melting point [°C]
NC(=O)CCc1c[nH]c2ccccc12 | 140
c1ccc(P(CC[Si](c2ccccc2)(c2ccccc2)c2ccccc2)c2ccccc2)cc1 | 128 to 131
COc1ncccc1-c1ncc(OC2SCC(O)C(O)C2O)cc1F (stereo not drawn) | 141
COC(=O)C1=C(C)NC(C)=C(C(=O)OCC2CCCO2)C1c1cccc(F)c1 (stereo not drawn) | 66 to 68
CN(CCO)c1ccnc(CO)c1Cl | 49 to 53
Nc1cc(C(F)(F)F)ccc1C=C1NC(=S)NC1=O | 240
O=C1CCC(c2ccc3[nH]c(C(=O)O)cc3c2)=NN1 | 185 to 187
CC12CCC3C(CC=C4CC(O)CCC43C)C1CC(Br)C2=O (stereo not drawn) | 167 to 168
O=C(O)c1ccc(S(=O)(=O)Oc2ccc(-c3ccc(-c4c(Cc5ccccc5)sc5ccccc45)cc3)cc2Br)cc1O | 117 to 119
CC(C)C(NC(=O)c1ccc(C(=O)NCc2ccc(N)cc2)cc1)C(=O)N1CCCC1C(=O)NC(C(=O)C(F)(F)F)C(C)C (mixture of isomers) | 90 to 92
CCOC(=O)Cc1cnc(C(C)(C)C)nc1O | 98 to 102
COC(=O)CCCNC1(c2ccccc2Cl)C(=O)Nc2ccc(Cl)cc21 (stereo not drawn) | 142
COc1cc(CC(=O)NCCOc2scc(C)c2C)ccc1OCCN | 85 to 87
O=C(c1ccc(Oc2cccc3ccccc23)cc1)C(O)O | 93 to 96
CP(C)(=O)CNc1cc(Oc2ccc(C(F)(F)F)cn2)ccc1[N+](=O)[O-] | 158 to 160
COc1nc(Cl)nc(N)c1C | 189
O=C(Nc1ccccc1Cl)Oc1ccc2c(c1)N(Cc1ccccc1)CCC2 | 145
Oc1ccc2c(c1)CCC2n1cc[nH]c1=S (stereo not drawn) | 208 to 209
CCOc1ccc(C2(C(=O)O)CC(F)(F)C2(F)F)cc1 (stereo not drawn) | 194
CC(=O)OCC(=O)C1(OC(C)=O)C(C)CC2C3CC(Cl)C4=CC(=O)C=CC4(C)C34OC4CC21C (stereo not drawn) | 211
CCOC(=O)C(=CNc1ncnn1C)C(=O)c1cc(F)c(Cl)nc1Cl | 102 to 103

Other lines, results leading:

melting point [°C] | Structure (SMILES)
107 to 108 | Cc1c(Br)c(O)c(Cc2ccc(C(C)C)cc2)c(C)c1N(Cc1ccccc1)C(=O)CC(C)(C)C
258 to 260 | COc1cc(-c2nc(-c3ccc(N(C)C)cc3)c(-c3ccc(N(C)C)cc3)[nH]2)cc(OC)c1O
212 to 216 | Nc1ncnc2c1ncn2Cc1oc2ccccc2c(=O)c1-c1ccc(F)cc1
189 to 192 | c1ccc2c(NCCCCNc3nccc4ccccc34)nccc2c1
180 to 182 | CCOCc1nc2c(N)nc3cc(-c4cccnc4)ccc3c2n1CC(C)C
169 to 170 | COc1cc(-c2oc3c(OC)cc(/C=C/C=O)cc3c2C)ccc1O
111 to 113 | CCN(CC)Cc1nc(-c2ccc(OC)c(OC)c2)c2cc(OC)c(OC)cc2n1
207 | CS(=O)(=O)c1cccc(NC(=O)c2cnn3c(C(F)F)cc(-c4ccc(C(F)(F)F)c(OCC(F)(F)F)c4)nc23)c1
141 to 143 | CCOC(=N)c1ccc(-c2nc3c(s2)NCCCC3)cc1
189 to 190 | CC(C)Cn1c(CNC(=O)OC(C)(C)C)c(-c2cccs2)c2cc(C#N)ccc2c1=O
250 to 255 | O=c1ccc2nc3ccc(F)cc3sc-2c1Cl
330 to 335 | Cc1nc2c(N)nc3ccncc3c2n1C
117 | O=S(=O)(CCCCl)Nc1ccc(OCc2ccc3ccccc3n2)cc1
133 to 137 | Nc1nc2ccccc2c2c1ncn2CCCCCCCCNC(=O)c1ccccc1
201 to 202 | CCOC(=O)Cc1nnc(-c2cc3cccc(N(C)S(=O)(=O)c4cccs4)c3[nH]2)s1
165 to 166 | CCCN(C(=O)OCC(Cl)(Cl)Cl)C1CN(C(=O)Nc2ccc(C(F)(F)F)cc2)N=C1c1ccc(OC(F)F)c(C)c1 (stereo not drawn)
222 to 223 | Nc1ncc(-c2cccc(-n3cnc4cc(-c5ccoc5)ccc43)c2)cn1
101 to 102 | Oc1cc(OCC(O)COc2ccccc2)ccc1C(=S)c1ccc(-c2ccccc2)cc1 (stereo not drawn)
274 to 275 | Cc1c(N)cccc1-c1cn(C)c(=O)c(Nc2ccc(C(=O)N3CCOCC3)cc2)n1

melting point [°C] | Structure (SMILES)
155 to 157 | COC(=O)/C=C/c1c(-c2ccc(F)cc2)c2ccccc2n1C(C)C
189 to 192 | CC(C)C(=O)c1cn(Cc2c(F)cccc2F)c2sc(-c3ccccc3)c(CBr)c2c1=O
136 to 137 | CCCc1nc2c(N)nc(C)c(C)c2n1CCCCN(OC)C(=O)c1ccccc1
173 to 175 | COc1ccc(CNc2nc(N)n3nc(-c4ccco4)nc3n2)cc1OCc1ccccc1
128 to 129 | CCOC(=O)c1nc2c(Cl)cccc2n(-c2ccc(OC)cc2)c1=O
> 225 | Nc1ccc2ncc(C(=O)NCc3ccc(Cl)cc3)c(O)c2c1
130 to 131 | CCOC(=O)C(C)(C(=O)OCC)c1cc(=O)n(Cc2ccccc2)c2ccccc12
252 to 254 | CSc1ncc(-c2ccccc2)c(=O)[nH]1
128 to 130 | CCNCN1CN=C(c2ccc(OC)c(OC)c2)c2cc(OC)c(OC)cc21
206 to 209 | COc1ccc(C(=O)c2ccccc2)c(O)c1Cc1cc(C)cc(-n2nc3ccccc3n2)c1O
193 | N#Cc1cnn2c(C(F)(F)F)cc(-c3cccnc3)nc12
104 | CC(N)Cn1cc(-c2ccccc2)c2ccccc2c1=O (stereo not drawn)
125 to 126 | Cc1cccc(-c2nccc3nc(N)nn23)c1
73 | CCc1cccc(Cn2[nH]c(N)cc2=O)c1
154 to 155 | CCOC(=O)c1nc(-c2cccc(F)c2)c(-c2ccc(=O)n(C(C)C)n2)s1
> 250 | Cc1cc(C)c(-c2cccc3c(O)cc(C)nc23)c(C)c1
164 to 166 | CC1(C)OC(c2ccc(S(C)(=O)=O)cc2)=C(c2cccnc2)C1=O
228 | Cc1nc(-c2cccc(C(=O)N[C@H]3CC[C@H](CCN4CCN(c5nccc6c5OCC6)CC4)CC3)c2)no1
160 to 161 | COc1ccc(C2Sc3c(ccc4ccccc34)N(CCN(C)C)C(=O)C2O)cc1 (stereo not drawn)
